Assays:
[1] = tested on: high and very high cardiovascular risk patients intolerant to statins; parameters: method as in PMID 36876740; conditions: statin-intolerant patients, LDL-C ≥100 mg/dL; cited from earlier work
[2] = tested on: rhesus monkeys; parameters: method as in PMID 36873173; conditions: two weeks; cited from earlier work
[3] = Copper-induced LDL oxidation, agarose gel electrophoresis; conditions: varying concentrations, copper 5 μM
Experimental: Prior to oxidation, EDTA was removed from LDL solutions (YB-001; Yiyuan Biotechnologies, Guangzhou, China). Subsequently, LDL solutions at a concentration of 0.2 mg/mL were incubated with varying concentrations of ISOGK in PBS for one h at 37 °C. The oxidation process was initiated by combining both native LDL and LDL pretreated with ISOGK with copper sulfate (99.0% purity; Jinshanting New Chemical Reagent Factory, Shanghai, China) to achieve a final copper concentration of 5 μM in PBS. This mixture was then incubated at 37 °C. Agarose gel electrophoresis was performed utilizing 0.5% agarose gels prepared in a sodium barbital buffer, following the stipulated electrophoretic methodology. The procedure was carried out in a 0.075 M sodium barbital buffer at a constant voltage of 55 V for a duration of one h. The relative electrophoretic mobility (REM) was determined by calculating the ratio of the migration distance of oxidized LDL to that of native LDL.

CC(C)(CCCCCC(O)CCCCCC(C)(C)C(=O)O)C(=O)O [Bempedoic acid, bempedoic acid]
primary composite endpoint vs placebo [1]: slight reduction in the primary composite endpoint

CC(C)c1c(C(=O)Nc2ccccc2)c(-c2ccccc2)c(-c2ccc(F)cc2)n1CC[C@@H](O)C[C@@H](O)CC(=O)O [atorvastatin]
LDL-C reduction from the baseline [2]: 19.4%

Vitamin E [reference compound]
antioxidant activity against copper-induced LDL oxidation (REM) [3]: retards LDL
